Key:
Human tumor cell lines = test: NCI in vitro screen, overall result; details: Tables I and II
HCT-15 = test: NCI in vitro screen, SRB percent growth, Colon Cancer
LOX IMVI = test: NCI in vitro screen, SRB percent growth, Melanoma
NCI-H23 = test: NCI in vitro screen, SRB percent growth, Non-Small Cell Lung Cancer
SK-MEL-5 = test: NCI in vitro screen, SRB percent growth, Melanoma
SNB-19 = test: NCI in vitro screen, SRB percent growth, CNS Cancer
DMS 114 = test: cells; details: Homo sapiens
786-0 = test: cells; details: Homo sapiens
SNB-78 = test: NCI in vitro screen, SRB percent growth, CNS Cancer
UO-31 = test: NCI in vitro screen, SRB percent growth, Renal Cancer
HT29 = test: NCI in vitro screen, SRB percent growth, Colon Cancer
KM20L2 = test: cells; details: Homo sapiens
COLO 205 = test: NCI in vitro screen, SRB percent growth, Colon Cancer
HCC-2998 = test: cells; details: Homo sapiens
HCT-116 = test: NCI in vitro screen, SRB percent growth, Colon Cancer
SW-620 = test: cells; details: Homo sapiens
SK-MEL-28 = test: NCI in vitro screen, SRB percent growth, Melanoma
[1] = Log10 Concentration -4.0, 100 µM
[2] = Log10 Concentration -7.0, 0.1 µM
[3] = 786-0, read-out: Percent Growth
[4] = KM-20L2, read-out: Percent Growth
[5] = HCC 2998, read-out: Percent Growth
[6] = SW-620, read-out: Percent Growth

## COc1ccc2[nH]c3c(C)c4c(c(C)c3c2c1)CN(C)C=C4 [Formula VII]
Human tumor cell lines
  effect against many kinds of cancer: effective against many kinds of cancer
HCT-15; [1]
  Percent Growth: 16%
HCT-15; Log10 Concentration -5.0
  Percent Growth: 96%
HCT-15; Log10 Concentration -6.0, 1 µM
  Percent Growth: 111%
HCT-15; [2]
  Percent Growth: 114%
HCT-15; Log10 Concentration -8.0
  Percent Growth: 118%
HCT-15; PG=0
  TGI: > 100 µM
HCT-15; PG=+50
  GI50: 37.7 µM
HCT-15; read-out: LC-50, PG=-50
  CC50: > 100 µM
LOX IMVI; [1]
  Percent Growth: -19%
LOX IMVI; Log10 Concentration -5.0
  Percent Growth: 58%
LOX IMVI; Log10 Concentration -6.0, 1 µM
  Percent Growth: 119%
LOX IMVI; Log10 Concentration -8.0
  Percent Growth: 129%
LOX IMVI; PG=0
  TGI: 56.9 µM
LOX IMVI; PG=+50
  GI50: 12.8 µM
LOX IMVI; read-out: LC-50, PG=-50
  CC50: > 100 µM
NCI-H23; [1]
  Percent Growth: -48%
NCI-H23; Log10 Concentration -5.0
  Percent Growth: -26%
NCI-H23; Log10 Concentration -6.0, 1 µM
  Percent Growth: 39%
NCI-H23; [2]
  Percent Growth: 97%
NCI-H23; Log10 Concentration -8.0
  Percent Growth: 112%
NCI-H23; PG=0
  TGI: 4.02 µM
NCI-H23; PG=+50
  GI50: 0.648 µM
NCI-H23; read-out: LC-50, PG=-50
  CC50: > 100 µM
SK-MEL-5; [1]
  Percent Growth: -53%
SK-MEL-5; Log10 Concentration -5.0
  Percent Growth: -53%
SK-MEL-5; Log10 Concentration -6.0, 1 µM
  Percent Growth: 75%
SK-MEL-5; [2]
  Percent Growth: 94%
SK-MEL-5; Log10 Concentration -8.0
  Percent Growth: 99%
SK-MEL-5; PG=0
  TGI: 3.85 µM
SK-MEL-5; PG=+50
  GI50: 1.56 µM
SK-MEL-5; read-out: LC-50, PG=-50
  CC50: 9.49 µM
SNB-19; [1]
  Percent Growth: 1%
SNB-19; Log10 Concentration -5.0
  Percent Growth: 0%
SNB-19; Log10 Concentration -6.0, 1 µM
  Percent Growth: 16%
SNB-19; [2]
  Percent Growth: 84%
SNB-19; Log10 Concentration -8.0
  Percent Growth: 95%
SNB-19; PG=0
  TGI: > 100 µM
SNB-19; PG=+50
  GI50: 0.318 µM
SNB-19; read-out: LC-50, PG=-50
  CC50: > 100 µM
DMS 114; DMS-114
  GI50: 0.183 µM
DMS 114; DMS-114, read-out: TGI
  IC (TGI): 1.7 µM
786-0; 786-0
  GI50: 0.0408 µM
786-0; 786-0, read-out: LC-50
  CC50: 66.7 µM
786-0; [3]
  activity at 0.01 µM: 69%
  activity at 0.1 µM: 38%
  activity at 1 µM: 3%
  activity at 10 µM: -20%
  activity at 100 µM: -56%
786-0; 786-0, read-out: TGI
  IC (TGI): 1.3 µM
SNB-78; [1]
  Percent Growth: -26%
SNB-78; Log10 Concentration -5.0
  Percent Growth: -18%
SNB-78; Log10 Concentration -6.0, 1 µM
  Percent Growth: 41%
SNB-78; [2]
  Percent Growth: 98%
SNB-78; Log10 Concentration -8.0
  Percent Growth: 98%
SNB-78; PG=0
  TGI: 4.9 µM
SNB-78; PG=+50
  GI50: 0.683 µM
SNB-78; read-out: LC-50, PG=-50
  CC50: > 100 µM
UO-31; [1]
  Percent Growth: 10%
UO-31; Log10 Concentration -5.0
  Percent Growth: 83%
UO-31; Log10 Concentration -6.0, 1 µM
  Percent Growth: 101%
UO-31; [2]
  Percent Growth: 112%
UO-31; Log10 Concentration -8.0
  Percent Growth: 119%
UO-31; PG=0
  TGI: > 100 µM
UO-31; PG=+50
  GI50: 28.4 µM
UO-31; read-out: LC-50, PG=-50
  CC50: > 100 µM
HT29; [1]
  Percent Growth: -73%
HT29; Log10 Concentration -5.0
  Percent Growth: 24%
HT29; Log10 Concentration -6.0, 1 µM
  Percent Growth: 88%
HT29; [2]
  Percent Growth: 112%
HT29; Log10 Concentration -8.0
  Percent Growth: 97%
HT29; PG=0
  TGI: 17.8 µM
HT29; PG=+50
  GI50: 3.92 µM
HT29; read-out: LC-50, PG=-50
  CC50: 58 µM
KM20L2; KM-20L2
  GI50: 3.63 µM
KM20L2; KM-20L2, read-out: LC-50
  CC50: > 100 µM
KM20L2; [4]
  activity at 0.01 µM: 106%
  activity at 0.1 µM: 104%
  activity at 1 µM: 82%
  activity at 10 µM: 25%
  activity at 100 µM: -34%
KM20L2; KM-20L2, read-out: TGI
  IC (TGI): 26.4 µM
COLO 205; [1]
  Percent Growth: -72%
COLO 205; [2]
  Percent Growth: 91%
COLO 205; Log10 Concentration -8.0
  Percent Growth: 99%
COLO 205; PG=0
  TGI: 5.6 µM
COLO 205; PG=+50
  GI50: 1.42 µM
COLO 205; read-out: LC-50, PG=-50
  CC50: 37.1 µM
HCC-2998; HCC 2998
  GI50: 4.74 µM
HCC-2998; HCC 2998, read-out: LC-50
  CC50: 43.9 µM
HCC-2998; [5]
  activity at 0.01 µM: 111%
  activity at 0.1 µM: 90%
  activity at 1 µM: 98%
  activity at 10 µM: 27%
  activity at 100 µM: -93%
HCC-2998; HCC 2998, read-out: TGI
  IC (TGI): 16.8 µM
HCT-116; [1]
  Percent Growth: -28%
HCT-116; Log10 Concentration -5.0
  Percent Growth: 29%
HCT-116; Log10 Concentration -6.0, 1 µM
  Percent Growth: 80%
HCT-116; [2]
  Percent Growth: 101%
HCT-116; Log10 Concentration -8.0
  Percent Growth: 106%
HCT-116; PG=0
  TGI: 32.2 µM
HCT-116; PG=+50
  GI50: 3.88 µM
HCT-116; read-out: LC-50, PG=-50
  CC50: > 100 µM
SW-620; SW-620
  GI50: 1.05 µM
SW-620; SW-620, read-out: LC-50
  CC50: > 100 µM
SW-620; [6]
  activity at 0.01 µM: 89%
  activity at 0.1 µM: 77%
  activity at 1 µM: 51%
  activity at 10 µM: 18%
  activity at 100 µM: -39%
SW-620; SW-620, read-out: TGI
  IC (TGI): 20.4 µM
SK-MEL-28; [1]
  Percent Growth: -75%
SK-MEL-28; Log10 Concentration -5.0
  Percent Growth: 4%
SK-MEL-28; Log10 Concentration -6.0, 1 µM
  Percent Growth: 91%
SK-MEL-28; [2]
  Percent Growth: 105%
SK-MEL-28; Log10 Concentration -8.0
  Percent Growth: 101%
SK-MEL-28; PG=0
  TGI: 11.3 µM
SK-MEL-28; PG=+50
  GI50: 2.95 µM
SK-MEL-28; read-out: LC-50, PG=-50
  CC50: 48.6 µM
